Data from patent publication US12516044B2, “Heterocyclic compounds as immunomodulators” (Incyte Corporation, priority 2015, dated 2026).

The compounds below were run against T1, PD-1/PD-L1 protein/protein interaction (Homo sapiens, UniProt Q9NZQ7) (assay: PD-1/PD-L1 Homogeneous Time-Resolved Fluorescence (HTRF) Binding Assay). Settings: recombinant human PD-L1 (19-238) His-tag and human PD-1 (25-167) Fc tag; 25° C., PBS pH 7.4.
T1 construct: Recombinant human PD-L1 protein (19-238) with a His-tag at the C-terminus; purchased AcroBiosystems PD1-H5229 (PD-L1-His); PD1-H5257 (PD-1-Fc)
T1 sequence (Q9NZQ7 19-238): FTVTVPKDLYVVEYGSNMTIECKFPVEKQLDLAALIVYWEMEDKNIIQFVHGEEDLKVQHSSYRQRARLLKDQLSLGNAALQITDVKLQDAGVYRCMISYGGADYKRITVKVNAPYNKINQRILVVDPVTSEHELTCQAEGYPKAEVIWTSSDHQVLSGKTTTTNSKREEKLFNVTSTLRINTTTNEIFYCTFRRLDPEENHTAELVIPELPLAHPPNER
Experimental: Example A. PD-1/PD-L1 Homogeneous Time-Resolved Fluorescence (HTRF) Binding Assay
The assays were conducted in a standard black 384-well polystyrene plate with a final volume of 20 μL. Inhibitors were first serially diluted in DMSO and then added to the plate wells before the addition of other reaction components. The final concentration of DMSO in the assay was 1%. The assays were carried out at 25° C. in the PBS buffer (pH 7.4) with 0.05% Tween-20 and 0.1% BSA. Recombinant human PD-L1 protein (19-238) with a His-tag at the C-terminus was purchased from AcroBiosystems (PD1-H5229). Recombinant human PD-1 protein (25-167) with Fc tag at the C-terminus was also purchased from AcroBiosystems (PD1-H5257). PD-L1 and PD-1 proteins were diluted in the assay buffer and 10 μL was added to the plate well. Plates were centrifuged and proteins were preincubated with inhibitors for 40 minutes. The incubation was followed by the addition of […] of HTRF detection buffer supplemented with Europium cryptate-labeled anti-human IgG (PerkinElmer-AD0212) specific for Fc and anti-His antibody conjugated to SureLight®-Allophycocyanin (APC, PerkinElmer-AD0059H). After centrifugation, the plate was incubated at 25° C. for 60 min. before reading on a PHERAstar FS plate reader (665 nm/620 nm ratio). Final concentrations in the assay were […] PD1, 10 nM PD-L1, 1 nM europium anti-human IgG and 20 nM anti-His-Allophycocyanin. IC50 determination was performed by fitting the curve of percent control activity versus the log of the inhibitor concentration using the GraphPad Prism 5.0 software.

SMILES	IC50
Cc1cnc(C(=O)Nc2cccc(-c3ccccc3)c2C)cc1CNCCO [Example 37, 4-{[(2-hydroxyethyl)amino]methyl}-5-methyl-N-(2-methylbiphenyl-3-yl)pyridine-2-carboxamide]	10 to 100 nM
CC(C)(C)OC(=O)N1CCC=C(c2cccc(NC(=O)c3ccc(CNCCO)cn3)c2C#N)C1 [Example 40, tert-butyl 5-(2-cyano-3-{[(5-{[(2-hydroxyethyl)amino]methyl}pyridin-2-yl)carbonyl]amino}phenyl)-3,6-dihydropyridine-1(2H)-carboxylate]	100 to 1000 nM
Cc1c(NC(=O)c2ccc(CN3CCCC[C@H]3C(=O)O)cn2)ccnc1-c1ccccc1 [Example 42, (S)-1-((6-(3-methyl-2-phenylpyridin-4-ylcarbamoyl)pyridin-3-yl)methyl)piperidine-2-carboxylic Acid]	> 1000 nM
Cc1c(NC(=O)c2ccc(CNCCO)cn2)ccnc1-c1ccccc1 [Example 43, 5-{[(2-hydroxyethyl)amino]methyl}-N-(3-methyl-2-phenylpyridin-4-yl)pyridine-2-carboxamide]	100 to 1000 nM
Cc1c(NC(=O)c2ccc(CNCCO)cn2)cc(F)cc1-c1ccc2c(c1)OCCO2 [Example 45, N-[3-(2,3-dihydro-1,4-benzodioxin-6-yl)-5-fluoro-2-methylphenyl]-5-{[(2-hydroxyethyl)amino]methyl}pyridine-2-carboxamide]	≤ 10 nM
N#Cc1c(NC(=O)c2ccc(CNCCO)cn2)cccc1-c1ccc2c(c1)OCC2 [Example 47, N-[2-cyano-3-(2,3-dihydro-1-benzofuran-6-yl)phenyl]-5-{[(2-hydroxyethyl)amino]methyl}pyridine-2-carboxamide]	10 to 100 nM
Cn1cc2ccc(-c3cccc(NC(=O)c4ccc(CNCCO)cn4)c3C#N)cc2n1 [Example 48, N-[2-cyano-3-(2-methyl-2H-indazol-6-yl)phenyl]-5-{[(2-hydroxyethyl)amino]methyl}pyridine-2-carboxamide]	10 to 100 nM
Cn1ncc2c(-c3cccc(NC(=O)c4ccc(CNCCO)cn4)c3C#N)cccc21 [Example 49, N-[2-cyano-3-(1-methyl-1H-indazol-4-yl)phenyl]-5-{[(2-hydroxyethyl)amino]methyl}pyridine-2-carboxamide]	≤ 10 nM

Continued, values first:

IC50	SMILES
≤ 10 nM	N#Cc1c(NC(=O)c2ccc(CNCCO)cn2)cccc1C1=CCCCC1 [Example 38, N-(2-cyano-3-cyclohex-1-en-1-ylphenyl)-5-{[(2-hydroxyethyl)amino]methyl} pyridine-2-carboxamide]
> 1000 nM	N#Cc1c(NC(=O)c2ccc(CNCCO)cn2)cccc1N1CCCCC1 [Example 39, N-(2-cyano-3-piperidin-1-ylphenyl)-5-{[(2-hydroxyethyl)amino]methyl}pyridine-2-carboxamide]
10 to 100 nM	N#Cc1c(NC(=O)c2ccc(CNCCO)cn2)cccc1C1CCCCC1 [Example 41, N-(2-cyano-3-cyclohexylphenyl)-5-{[(2-hydroxyethyl)amino]methyl}pyridine-2-carboxamide]
10 to 100 nM	N#Cc1c(NC(=O)c2ccc(CNCCO)cn2)cccc1C1=COCCC1 [Example 44, N-[2-cyano-3-(3,4-dihydro-2H-pyran-5-yl)phenyl]-5-{[(2-hydroxyethyl)amino]methyl}pyridine-2-carboxamide]
100 to 1000 nM	CN1CCOc2cc(-c3cccc(NC(=O)c4ccc(CNCCO)cn4)c3C#N)ccc21 [Example 46, N-[2-cyano-3-(4-methyl-3,4-dihydro-2H-1,4-benzoxazin-7-yl)phenyl]-5-{[(2-hydroxyethyl)amino]methyl}pyridine-2-carboxamide]
